From PMC7898037, “Improving mitochondria and ER stability helps eliminate upper motor neuron degeneration that occurs due to mSOD1 toxicity and TDP‐43 pathology” (Clinical and Translational Medicine, 2021)

Tested on: WT‐UeGFP mice
Test: Rotarod test, WT‐UeGFP mice
Type: in vivo
Design: Rotarod, Mean Diff. (vehicle minus NU-9) / Rotarod, mean difference G vehicle vs. G NU-9 (20) / Rotarod, mean difference G vehicle vs. G NU-9 (100): unit not given here
Details: for Rotarod, group mean (Mean 1 / Mean 2 of 2way ANOVA multiple comparisons): WT-UeGFP (G); for Rotarod, group mean (Mean 1 / Mean 2) / Rotarod, Mean Diff. (vehicle minus NU-9): WT-UeGFP mice; for Rotarod, Average / Rotarod, mean difference G vehicle vs. G NU-9 (20) / Rotarod, mean difference G vehicle vs. G NU-9 (100): WT-UeGFP; for Rotarod, mean difference G vehicle vs. G NU-9 (20): vehicle minus NU-9 20 mg/kg/day; for Rotarod, mean difference G vehicle vs. G NU-9 (100): vehicle minus NU-9 100 mg/kg/day
Description: hSOD1^G93A‐UeGFP, prpTDP‐43^A315T‐UeGFP and WT‐UeGFP mice were weighed and the required NU‐9 dose per weight was calculated (20 or 100 mg/kg), which was administered once daily by oral gavage, starting at postnatal day (P)60 and continuing until P120. Animals from the untreated group received the vehicle (NMP and olive oil) only. For oral administration purposes, 20 ga × 38 mm plastic feeding tubes were used (Instech Laboratories, Inc). The gavage tip was inserted into the mouth directly over the tongue and into the pharynx. While observing the swallowing reflex, the tip was safely and smoothly slid into the esophagus. Once the administration was completed, the gavage tip was pulled straight out.
Behavior data were collected from hSOD1^G93A‐UeGFP and WT‐UeGFP mice (starting at P60 and every 7 days until P116) and from prpTDP‐43^A315T‐UeGFP mice (at P60, P90, and P120) with the following number of mice for each group: WT‐UeGFP vehicle (n = 10), hSOD1^G93A‐UeGFP vehicle (n = 6), WT‐UeGFP 20 mg/kg/day NU‐9 (n = 5), hSOD1^G93A‐UeGFP 20 mg/kg/day NU‐9 (n = 7), WT‐UeGFP 100 mg/kg/day NU‐9 (n = 11), hSOD1^G93A‐UeGFP 100 mg/kg/day NU‐9 (n = 9), prpTDP‐43^A315T‐UeGFP untreated (n ≥ 3), and prpTDP‐43^A315T‐UeGFP 100 mg/kg/day NU‐9 (n = 4) (Table S3).
Mice were placed on a rotating rod that accelerates linearly from 4 to 40 rpm (Rotarod, Ugo Basile), and the average time spent on the rotating rod for three consecutive trials was calculated for each mouse. Mice were allowed to run for a maximum of 5 min with a 5 min rest period between each run, and the latency to fall was recorded for three consecutive trials. The average of the three trials was taken as the data point for each mouse at the age tested, and the performance of different groups are reported as the mean ± SEM.

C[C@H](Oc1cc(C(F)(F)F)cc(C(F)(F)F)c1)C1CC(=O)CC(=O)C1 [NU‐9]
Rotarod, group mean (Mean 1 / Mean 2 of 2way ANOVA multiple comparisons) (NU-9 20 mg/kg/day, P102): 295.1
Rotarod, group mean (Mean 1 / Mean 2 of 2way ANOVA multiple comparisons) (NU-9 20 mg/kg/day, P109): 291
Rotarod, group mean (Mean 1 / Mean 2 of 2way ANOVA multiple comparisons) (NU-9 20 mg/kg/day, P116): 298.9
Rotarod, group mean (Mean 1 / Mean 2 of 2way ANOVA multiple comparisons) (NU-9 100 mg/kg/day, P102): 251.4
Rotarod, group mean (Mean 1 / Mean 2 of 2way ANOVA multiple comparisons) (NU-9 100 mg/kg/day, P109): 241.3
Rotarod, group mean (Mean 1 / Mean 2 of 2way ANOVA multiple comparisons) (NU-9 100 mg/kg/day, P116): 221.3
Rotarod, group mean (Mean 1 / Mean 2) (NU-9 20 mg/kg/day, P60): 260.7
Rotarod, group mean (Mean 1 / Mean 2) (NU-9 20 mg/kg/day, P67): 279.2
Rotarod, group mean (Mean 1 / Mean 2) (NU-9 20 mg/kg/day, P74): 295.3
Rotarod, group mean (Mean 1 / Mean 2) (NU-9 20 mg/kg/day, P81): 286.1
Rotarod, group mean (Mean 1 / Mean 2) (NU-9 20 mg/kg/day, P88): 285.5
Rotarod, group mean (Mean 1 / Mean 2) (NU-9 20 mg/kg/day, P95): 279.3
Rotarod, group mean (Mean 1 / Mean 2) (NU-9 100 mg/kg/day, P60): 250.1
Rotarod, group mean (Mean 1 / Mean 2) (NU-9 100 mg/kg/day, P67): 261.4
Rotarod, group mean (Mean 1 / Mean 2) (NU-9 100 mg/kg/day, P74): 261.2
Rotarod, group mean (Mean 1 / Mean 2) (NU-9 100 mg/kg/day, P81): 258.5
Rotarod, group mean (Mean 1 / Mean 2) (NU-9 100 mg/kg/day, P88): 256.5
Rotarod, group mean (Mean 1 / Mean 2) (NU-9 100 mg/kg/day, P95): 262.2
Rotarod, Mean Diff. (vehicle minus NU-9) (vehicle vs. NU-9 20 mg/kg/day, P60): 10.27
Rotarod, Mean Diff. (vehicle minus NU-9) (vehicle vs. NU-9 20 mg/kg/day, P67): -0.9667
Rotarod, Mean Diff. (vehicle minus NU-9) (vehicle vs. NU-9 20 mg/kg/day, P74): -13.73
Rotarod, Mean Diff. (vehicle minus NU-9) (vehicle vs. NU-9 20 mg/kg/day, P81): -2.267
Rotarod, Mean Diff. (vehicle minus NU-9) (vehicle vs. NU-9 20 mg/kg/day, P88): -1.533
Rotarod, Mean Diff. (vehicle minus NU-9) (vehicle vs. NU-9 20 mg/kg/day, P95): 5.033
Rotarod, Mean Diff. (vehicle minus NU-9) (vehicle vs. NU-9 20 mg/kg/day, P102): -24.77
Rotarod, Mean Diff. (vehicle minus NU-9) (vehicle vs. NU-9 20 mg/kg/day, P109): -17.03
Rotarod, Mean Diff. (vehicle minus NU-9) (vehicle vs. NU-9 20 mg/kg/day, P116): -40.09
Rotarod, Mean Diff. (vehicle minus NU-9) (vehicle vs. NU-9 100 mg/kg/day, P60): 20.91
Rotarod, Mean Diff. (vehicle minus NU-9) (vehicle vs. NU-9 100 mg/kg/day, P67): 16.81
Rotarod, Mean Diff. (vehicle minus NU-9) (vehicle vs. NU-9 100 mg/kg/day, P74): 20.39
Rotarod, Mean Diff. (vehicle minus NU-9) (vehicle vs. NU-9 100 mg/kg/day, P81): 25.41
Rotarod, Mean Diff. (vehicle minus NU-9) (vehicle vs. NU-9 100 mg/kg/day, P88): 27.48
Rotarod, Mean Diff. (vehicle minus NU-9) (vehicle vs. NU-9 100 mg/kg/day, P95): 22.09
Rotarod, Mean Diff. (vehicle minus NU-9) (vehicle vs. NU-9 100 mg/kg/day, P102): 18.94
Rotarod, Mean Diff. (vehicle minus NU-9) (vehicle vs. NU-9 100 mg/kg/day, P109): 32.69
Rotarod, Mean Diff. (vehicle minus NU-9) (vehicle vs. NU-9 100 mg/kg/day, P116): 37.47
Rotarod, Average (NU-9 20 mg/kg/day po, P60): 260.733 s
Rotarod, Average (NU-9 20 mg/kg/day po, P67): 279.2 s
Rotarod, Average (NU-9 20 mg/kg/day po, P74): 295.333 s
Rotarod, Average (NU-9 20 mg/kg/day po, P81): 286.133 s
Rotarod, Average (NU-9 20 mg/kg/day po, P88): 285.467 s
Rotarod, Average (NU-9 20 mg/kg/day po, P95): 279.267 s
Rotarod, Average (NU-9 20 mg/kg/day po, P102): 295.133 s
Rotarod, Average (NU-9 20 mg/kg/day po, P109): 291 s
Rotarod, Average (NU-9 20 mg/kg/day po, P116): 298.867 s
Rotarod, Average (NU-9 100 mg/kg/day po, P60): 250.091 s
Rotarod, Average (NU-9 100 mg/kg/day po, P67): 261.424 s
Rotarod, Average (NU-9 100 mg/kg/day po, P74): 261.212 s
Rotarod, Average (NU-9 100 mg/kg/day po, P81): 258.455 s
Rotarod, Average (NU-9 100 mg/kg/day po, P88): 256.455 s
Rotarod, Average (NU-9 100 mg/kg/day po, P95): 262.212 s
Rotarod, Average (NU-9 100 mg/kg/day po, P102): 251.424 s
Rotarod, Average (NU-9 100 mg/kg/day po, P109): 241.273 s
Rotarod, Average (NU-9 100 mg/kg/day po, P116): 221.303 s
Rotarod, mean difference G vehicle vs. G NU-9 (20) (P102): -24.77
Rotarod, mean difference G vehicle vs. G NU-9 (20) (P109): -17.03
Rotarod, mean difference G vehicle vs. G NU-9 (20) (P116): -40.09
Rotarod, mean difference G vehicle vs. G NU-9 (100) (P102): 18.94
Rotarod, mean difference G vehicle vs. G NU-9 (100) (P109): 32.69
Rotarod, mean difference G vehicle vs. G NU-9 (100) (P116): 37.47
